ChEMBL document CHEMBL3885861, “Open TG-GATES”

Organism: Rattus norvegicus
Test: Open TG-GATES - Regimen: Single
Assay type: toxicity, organism-based, Sprague-Dawley
Set-up: regimen Single, gender Male, age 6 weeks
Conditions: in vivo, po, route gavage; for gamma-GTP / ALP / ALT / AST / BUN / CRE / Ca / Cl / DBIL / GLC / IP / K / LDH / Na / PL / RALB / TBIL / TC / TG / TP: tissue Plasma; for APTT / Bas / Eos / Fbg / Hb / Ht / Lym / MCH / MCHC / MCV / Mono / Neu / PT / Plat / RBC / Ret: tissue Blood; for KIDNEY_L / KIDNEY_R / KIDNEY_TOTAL: tissue Kidney; for LIVER: tissue Liver
[1] = 100 mg/kg, 24 h, dose level Low

`COc1ccc2[nH]c([S+]([O-])Cc3ncc(C)c(OC)c3C)nc2c1` (centres undefined) [OMEPRAZOLE] was tested, and the gamma-GTP (0 mg/kg, 24 h, dose level Control) was 1.4 IU/L, the TERMINAL_BW (100 mg/kg, 3 h, dose level Low) was 221.4 g and the APTT (100 mg/kg, 3 h, dose level Low) was 18.4 s. The Bas (100 mg/kg, 3 h, dose level Low) was 0%, the Eos (100 mg/kg, 3 h, dose level Low) was 1.2% and the Fbg (100 mg/kg, 3 h, dose level Low) was 209.8 mg/dL. For the same molecule, the Hb (100 mg/kg, 3 h, dose level Low) was 12.8 g/dL, the Ht (100 mg/kg, 3 h, dose level Low) was 37.6% and the Lym (100 mg/kg, 3 h, dose level Low) was 77.2%. It also gave an MCH (100 mg/kg, 3 h, dose level Low) of 21.2 pg, an MCHC (100 mg/kg, 3 h, dose level Low) of 34.1% and an MCV (100 mg/kg, 3 h, dose level Low) of 62.2 fL. The Mono (100 mg/kg, 3 h, dose level Low) was 3.4%, the Neu (100 mg/kg, 3 h, dose level Low) was 18% and the PT (100 mg/kg, 3 h, dose level Low) was 12.6 s. The Plat (100 mg/kg, 3 h, dose level Low) was 122.2 x10_4/uL, the RBC (100 mg/kg, 3 h, dose level Low) was 603.6 x10_4/ul and the Ret (100 mg/kg, 3 h, dose level Low) was 6.9%. For the same molecule, the KIDNEY_L (100 mg/kg, 3 h, dose level Low) was 1 g, the KIDNEY_R (100 mg/kg, 3 h, dose level Low) was 1 g and the KIDNEY_TOTAL (100 mg/kg, 3 h, dose level Low) was 2 g. For the same molecule, the LIVER (100 mg/kg, 3 h, dose level Low) was 10.2 g, the ALP (100 mg/kg, 3 h, dose level Low) was 983 IU/L and the ALT (100 mg/kg, 3 h, dose level Low) was 33.8 IU/L. It also gave an AST (100 mg/kg, 3 h, dose level Low) of 73.6 IU/L, a BUN (100 mg/kg, 3 h, dose level Low) of 11.6 mg/dL and a CRE (100 mg/kg, 3 h, dose level Low) of 0.4 mg/dL. It also gave a Ca (100 mg/kg, 3 h, dose level Low) of 10.6 mg/dL, a Cl (100 mg/kg, 3 h, dose level Low) of 100.6 meq/L and a DBIL (100 mg/kg, 3 h, dose level Low) of 0.078 mg/dL. For the same molecule, the GLC (100 mg/kg, 3 h, dose level Low) was 201.4 mg/dL, the IP (100 mg/kg, 3 h, dose level Low) was 9.1 mg/dL and the K (100 mg/kg, 3 h, dose level Low) was 4 meq/L. The LDH (100 mg/kg, 3 h, dose level Low) was 180.6 IU/L, the Na (100 mg/kg, 3 h, dose level Low) was 140.2 meq/L and the PL (100 mg/kg, 3 h, dose level Low) was 144.8 mg/dL. The RALB (100 mg/kg, 3 h, dose level Low) was 3.3 g/dL, the TBIL (100 mg/kg, 3 h, dose level Low) was 0.1 mg/dL and the TC (100 mg/kg, 3 h, dose level Low) was 74.2 mg/dL. It also gave a TG (100 mg/kg, 3 h, dose level Low) of 86.6 mg/dL, a TP (100 mg/kg, 3 h, dose level Low) of 5.4 g/dL and a gamma-GTP (100 mg/kg, 3 h, dose level Low) of 0.8 IU/L. The TERMINAL_BW (100 mg/kg, 6 h, dose level Low) was 217.8 g, the APTT (100 mg/kg, 6 h, dose level Low) was 19.2 s and the Bas (100 mg/kg, 6 h, dose level Low) was 0%. It also gave an Eos (100 mg/kg, 6 h, dose level Low) of 1%, a Fbg (100 mg/kg, 6 h, dose level Low) of 217 mg/dL and a Hb (100 mg/kg, 6 h, dose level Low) of 13.2 g/dL. It also gave a Ht (100 mg/kg, 6 h, dose level Low) of 38.6%, a Lym (100 mg/kg, 6 h, dose level Low) of 76% and an MCH (100 mg/kg, 6 h, dose level Low) of 21.1 pg. The MCHC (100 mg/kg, 6 h, dose level Low) was 34.2%, the MCV (100 mg/kg, 6 h, dose level Low) was 61.7 fL and the Mono (100 mg/kg, 6 h, dose level Low) was 4%. It also gave a Neu (100 mg/kg, 6 h, dose level Low) of 18.8%, a PT (100 mg/kg, 6 h, dose level Low) of 12.9 s and a Plat (100 mg/kg, 6 h, dose level Low) of 114.2 x10_4/uL. It also gave an RBC (100 mg/kg, 6 h, dose level Low) of 626.4 x10_4/ul, a Ret (100 mg/kg, 6 h, dose level Low) of 6.5% and a KIDNEY_L (100 mg/kg, 6 h, dose level Low) of 1 g. It also gave a KIDNEY_R (100 mg/kg, 6 h, dose level Low) of 1 g, a KIDNEY_TOTAL (100 mg/kg, 6 h, dose level Low) of 2 g and an LIVER (100 mg/kg, 6 h, dose level Low) of 10.1 g. The ALP (100 mg/kg, 6 h, dose level Low) was 849 IU/L, the ALT (100 mg/kg, 6 h, dose level Low) was 32 IU/L and the AST (100 mg/kg, 6 h, dose level Low) was 65 IU/L. For the same molecule, the BUN (100 mg/kg, 6 h, dose level Low) was 9.4 mg/dL, the CRE (100 mg/kg, 6 h, dose level Low) was 0.4 mg/dL and the Ca (100 mg/kg, 6 h, dose level Low) was 10.6 mg/dL. It also gave a Cl (100 mg/kg, 6 h, dose level Low) of 102.4 meq/L, a DBIL (100 mg/kg, 6 h, dose level Low) of 0.074 mg/dL and a GLC (100 mg/kg, 6 h, dose level Low) of 197.8 mg/dL. The IP (100 mg/kg, 6 h, dose level Low) was 9.4 mg/dL, the K (100 mg/kg, 6 h, dose level Low) was 4 meq/L and the LDH (100 mg/kg, 6 h, dose level Low) was 219.6 IU/L. For the same molecule, the Na (100 mg/kg, 6 h, dose level Low) was 141 meq/L, the PL (100 mg/kg, 6 h, dose level Low) was 159.6 mg/dL and the RALB (100 mg/kg, 6 h, dose level Low) was 3.3 g/dL. The TBIL (100 mg/kg, 6 h, dose level Low) was 0.1 mg/dL, the TC (100 mg/kg, 6 h, dose level Low) was 86.2 mg/dL and the TG (100 mg/kg, 6 h, dose level Low) was 83.4 mg/dL. It also gave a TP (100 mg/kg, 6 h, dose level Low) of 5.4 g/dL, a gamma-GTP (100 mg/kg, 6 h, dose level Low) of 1 IU/L and a TERMINAL_BW (100 mg/kg, 9 h, dose level Low) of 217.8 g. For the same molecule, the APTT (100 mg/kg, 9 h, dose level Low) was 20.7 s, the Bas (100 mg/kg, 9 h, dose level Low) was 0% and the Eos (100 mg/kg, 9 h, dose level Low) was 0.8%. It also gave a Fbg (100 mg/kg, 9 h, dose level Low) of 217.6 mg/dL, a Hb (100 mg/kg, 9 h, dose level Low) of 12.9 g/dL and a Ht (100 mg/kg, 9 h, dose level Low) of 37.5%. The Lym (100 mg/kg, 9 h, dose level Low) was 76.8%, the MCH (100 mg/kg, 9 h, dose level Low) was 20.9 pg and the MCHC (100 mg/kg, 9 h, dose level Low) was 34.5%. For the same molecule, the MCV (100 mg/kg, 9 h, dose level Low) was 60.6 fL, the Mono (100 mg/kg, 9 h, dose level Low) was 3.4% and the Neu (100 mg/kg, 9 h, dose level Low) was 18.4%. For the same molecule, the PT (100 mg/kg, 9 h, dose level Low) was 12.8 s, the Plat (100 mg/kg, 9 h, dose level Low) was 130.5 x10_4/uL and the RBC (100 mg/kg, 9 h, dose level Low) was 620.2 x10_4/ul. It also gave a Ret (100 mg/kg, 9 h, dose level Low) of 6.8%, a KIDNEY_L (100 mg/kg, 9 h, dose level Low) of 1 g and a KIDNEY_R (100 mg/kg, 9 h, dose level Low) of 1 g. The KIDNEY_TOTAL (100 mg/kg, 9 h, dose level Low) was 2.1 g, the LIVER (100 mg/kg, 9 h, dose level Low) was 9.7 g and the ALP (100 mg/kg, 9 h, dose level Low) was 826.2 IU/L. The ALT (100 mg/kg, 9 h, dose level Low) was 28.8 IU/L, the AST (100 mg/kg, 9 h, dose level Low) was 56.8 IU/L and the BUN (100 mg/kg, 9 h, dose level Low) was 9 mg/dL. It also gave a CRE (100 mg/kg, 9 h, dose level Low) of 0.3 mg/dL, a Ca (100 mg/kg, 9 h, dose level Low) of 10.3 mg/dL and a Cl (100 mg/kg, 9 h, dose level Low) of 101 meq/L. For the same molecule, the DBIL (100 mg/kg, 9 h, dose level Low) was 0.066 mg/dL, the GLC (100 mg/kg, 9 h, dose level Low) was 197.4 mg/dL and the IP (100 mg/kg, 9 h, dose level Low) was 10.1 mg/dL. It also gave a K (100 mg/kg, 9 h, dose level Low) of 4 meq/L, an LDH (100 mg/kg, 9 h, dose level Low) of 171.6 IU/L and a Na (100 mg/kg, 9 h, dose level Low) of 140 meq/L. It also gave a PL (100 mg/kg, 9 h, dose level Low) of 135.8 mg/dL, an RALB (100 mg/kg, 9 h, dose level Low) of 3.3 g/dL and a TBIL (100 mg/kg, 9 h, dose level Low) of 0.1 mg/dL. It also gave a TC (100 mg/kg, 9 h, dose level Low) of 71.2 mg/dL, a TG (100 mg/kg, 9 h, dose level Low) of 68.6 mg/dL and a TP (100 mg/kg, 9 h, dose level Low) of 5.4 g/dL. The gamma-GTP (100 mg/kg, 9 h, dose level Low) was 1 IU/L, the TERMINAL_BW [1] was 234.1 g and the APTT [1] was 19.3 s. The Bas [1] was 0%, the Eos [1] was 1% and the Fbg [1] was 216.2 mg/dL. The Hb [1] was 12.8 g/dL, the Ht [1] was 37.6% and the Lym [1] was 84.4%. The MCH [1] was 21.2 pg, the MCHC [1] was 34% and the MCV [1] was 62.2 fL. It also gave a Mono [1] of 2.4%, a Neu [1] of 12% and a PT [1] of 12.6 s. It also gave a Plat [1] of 130.1 x10_4/uL, an RBC [1] of 604.8 x10_4/ul and a Ret [1] of 6.9%. It also gave a KIDNEY_L [1] of 1 g, a KIDNEY_R [1] of 1.1 g and a KIDNEY_TOTAL [1] of 2.1 g. It also gave an LIVER [1] of 11.2 g, an ALP [1] of 851.2 IU/L and an ALT [1] of 28.4 IU/L. It also gave an AST [1] of 57.8 IU/L, a BUN [1] of 15.8 mg/dL and a CRE [1] of 0.4 mg/dL. It also gave a Ca [1] of 10.6 mg/dL, a Cl [1] of 101 meq/L and a DBIL [1] of 0.092 mg/dL. For the same molecule, the GLC [1] was 209.4 mg/dL, the IP [1] was 9.3 mg/dL and the K [1] was 4.4 meq/L. The LDH [1] was 195.8 IU/L, the Na [1] was 140.2 meq/L and the PL [1] was 145.4 mg/dL. It also gave an RALB [1] of 3.2 g/dL, a TBIL [1] of 0.1 mg/dL and a TC [1] of 77.8 mg/dL. The TG [1] was 89.8 mg/dL and the TP [1] was 5.3 g/dL.
